Measured values: patent US10144742B2 (Millennium Pharmaceuticals, Inc., priority 2014, dated 2018)
pIC50: −log10 of the molar value. Read-outs that look alike come from different tables or passages of the source.

Experiments:
hNAMPT protein = hNAMPT protein (Homo sapiens (Human), UniProt P43490); experiment: NAMPT enzyme assay (TR-FRET/HTRF, BodiPY ligand, anti 6His-Tb); type: binding; conditions: for pIC50: read-out: IC50; for inhibition at 1 µM: read-out: Percent Inhibition
In short: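 TR-FRET binding assay in which His-tagged human NAMPT with anti-6His-Tb is displaced by compound from a BodiPY ligand, incubated 1 h at rt in the dark. Excitation was at 320 nm, with the 520/486 nm emission ratio read. IC50 was fitted from inhibition relative to DMSO controls.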

PC3 cells = experiment: PC3 growth inhibition (Cell-titer glo, 72 hours); type: cell-based; conditions: Homo sapiens, PC-3, PC3 cells, 72 hours, Cell-titer glo, read-out: Percent Inhibition (PC3 growth inhibition); for inhibition at 1 µM: compound concentration 1 μM; for inhibition at 1.667 µM: compound concentration 1.667 μM
In short: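 PC3 cells in RPMI1640 seeded overnight at 37 °C, 5% CO2, then exposed to compound diluted in AIM serum-free medium for 72 h. Viability by CellTiter-Glo luminescence vs DMSO controls; single-concentration % remaining viability (1 μM or 1.667 μM), or GI50/LD50 from curves.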

[1] = NAMPT inhibition at compound concentration 1 μM
[2] = NAMPT inhibition, IC50 range class

Sequence of hNAMPT protein (P43490 whole entry): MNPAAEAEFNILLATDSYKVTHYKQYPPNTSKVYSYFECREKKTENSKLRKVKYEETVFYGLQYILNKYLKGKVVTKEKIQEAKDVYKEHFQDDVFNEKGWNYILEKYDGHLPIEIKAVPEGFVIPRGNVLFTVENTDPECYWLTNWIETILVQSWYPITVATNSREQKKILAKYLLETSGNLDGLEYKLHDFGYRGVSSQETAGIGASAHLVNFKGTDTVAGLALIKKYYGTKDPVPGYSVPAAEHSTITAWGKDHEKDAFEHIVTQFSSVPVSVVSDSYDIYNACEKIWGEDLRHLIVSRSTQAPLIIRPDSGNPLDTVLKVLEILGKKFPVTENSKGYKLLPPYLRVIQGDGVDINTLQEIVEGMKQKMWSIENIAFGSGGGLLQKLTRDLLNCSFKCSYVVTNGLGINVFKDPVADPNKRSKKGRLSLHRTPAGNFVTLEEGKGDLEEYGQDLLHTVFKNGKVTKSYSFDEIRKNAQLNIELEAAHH

O=C(NCCCn1ccnc1)c1ccc2nc(-c3ccccc3)c(-c3ccsc3)nc2c1 [Compound I-174, N-[3-(1H-imidazol-1-yl)propyl]-2-phenyl-3-(3-thienyl)quinoxaline-6-carboxamide]
pIC50 (hNAMPT protein; NAMPT IC50 range class): 6.30 to 7.00
inhibition at 1 µM (hNAMPT protein; compound concentration 1 μM): 89%
inhibition at 1 µM (PC3 cells): 1%

Cc1cc(C)n(-c2nc3ccc(C(=O)NCCCc4ncc[nH]4)cc3nc2-c2ccc(F)cc2)n1 [Compound I-428, 2-(3,5-dimethyl-1H-pyrazol-1-yl)-3-(4-fluorophenyl)-N-[3-(1H-imidazol-2-yl)propyl]quinoxaline-6-carboxamide]
inhibition at 1 µM (hNAMPT protein; [1]): 71%
pIC50 (hNAMPT protein; [2]): 6.30 to 7.00
inhibition at 1.667 µM (PC3 cells): 2%

O=C(NCCCn1ccnc1)c1ccc2nc(-c3ccccc3)c(-c3ccc4[nH]ccc4c3)nc2c1 [Compound I-97, N-[3-(1H-imidazol-1-yl)propyl]-3-(1H-indol-5-yl)-2-phenylquinoxaline-6-carboxamide]
pIC50 (hNAMPT protein; NAMPT IC50 range class): 6.00 to 6.30
inhibition at 1 µM (hNAMPT protein; compound concentration 1 μM): 58%
inhibition at 1 µM (PC3 cells): 1%

CN1CCN(c2nc3cc(C(=O)NCCCn4ccnc4)ccc3nc2-c2ccccc2)CC1=O [Compound I-127, N-[3-(1H-imidazol-1-yl)propyl]-3-(4-methyl-3-oxopiperazin-1-yl)-2-phenylquinoxaline-6-carboxamide]
pIC50 (hNAMPT protein; NAMPT IC50 range class): 5.00 to 5.70
inhibition at 1 µM (hNAMPT protein; compound concentration 1 μM): 16%
inhibition at 1 µM (PC3 cells): 95%

NC(=O)c1cccc(-c2nc3ccc(C(=O)NCCCn4ccnc4)cc3nc2-c2ccccc2)c1 [Compound I-235, 2-(3-carbamoylphenyl)-N-[3-(1H-imidazol-1-yl)propyl]-3-phenylquinoxaline-6-carboxamide]
pIC50 (hNAMPT protein; NAMPT IC50 range class): 6.30 to 7.00
inhibition at 1 µM (hNAMPT protein; compound concentration 1 μM): 79%
inhibition at 1 µM (PC3 cells): -8%

CS(=O)(=O)CCOc1nc2ccc(C(=O)NCCCc3ncc[nH]3)cc2nc1-c1ccc(F)cc1 [Compound I-401, 3-(4-fluorophenyl)-N-[3-(1H-imidazol-2-yl)propyl]-2-[2-(methylsulfonyl)ethoxy]quinoxaline-6-carboxamide]
inhibition at 1 µM (hNAMPT protein; [1]): 69%
pIC50 (hNAMPT protein; [2]): 6.30 to 7.00
inhibition at 1.667 µM (PC3 cells): 99%

O=C(c1ccc2nc(-c3ccc(F)cc3)c(-c3ccc(F)cc3)nc2c1)N1CCc2cn[nH]c2C1 [Compound I-244, [2,3-bis(4-fluorophenyl)quinoxalin-6-yl](1,4,5,7-tetrahydro-6H-pyrazolo[3,4-c]pyridin-6-yl)methanone]
pIC50 (hNAMPT protein; NAMPT IC50 range class): 5.00 to 5.70
inhibition at 1 µM (hNAMPT protein; compound concentration 1 μM): 33%
inhibition at 1 µM (PC3 cells): 96%

Cn1cnc2c1CN(C(=O)c1ccc3nc(-c4ccc(F)cc4)c(-c4ccc(F)cc4)nc3c1)CC2 [Compound I-33, [2,3-bis(4-fluorophenyl)quinoxalin-6-yl](3-methyl-3,4,6,7-tetrahydro-5H-imidazo[4,5-c]pyridin-5-yl)methanone]
pIC50 (hNAMPT protein; NAMPT IC50 range class): 5.00 to 5.70
inhibition at 1 µM (hNAMPT protein; compound concentration 1 μM): 20%
inhibition at 1 µM (PC3 cells): 92%

O=C(c1ccc2nc(-c3ccc(F)cc3)c(-c3ccc(F)cc3)nc2c1)N1CCc2[nH]ccc2C1 [Compound I-75, [2,3-bis(4-fluorophenyl)quinoxalin-6-yl](1,4,6,7-tetrahydro-5H-pyrrolo[3,2-c]pyridin-5-yl)methanone]
pIC50 (hNAMPT protein; NAMPT IC50 range class): 5.00 to 5.70
inhibition at 1 µM (hNAMPT protein; compound concentration 1 μM): 16%
inhibition at 1 µM (PC3 cells): 96%

O=C(NCCc1cnccn1)c1ccc2nc(-c3ccc(F)cc3)c(-c3ccc(F)cc3)nc2c1 [Compound I-184, 2,3-bis(4-fluorophenyl)-N-[2-(pyrazin-2-yl)ethyl]quinoxaline-6-carboxamide]
pIC50 (hNAMPT protein; NAMPT IC50 range class): 5.70 to 6.00
inhibition at 1 µM (hNAMPT protein; compound concentration 1 μM): 39%
inhibition at 1 µM (PC3 cells): 101%

O=C(NCCCc1ccccn1)c1ccc2nc(-c3ccc(F)cc3)c(-c3ccc(F)cc3)nc2c1 [Compound I-180, 2,3-Bis(4-fluorophenyl)-N-[3-(pyridin-2-yl)propyl]quinoxaline-6-carboxamide]
pIC50 (hNAMPT protein; NAMPT IC50 range class): 5.00 to 5.70
inhibition at 1 µM (hNAMPT protein): 27%
inhibition at 1 µM (PC3 cells): 102%

O=C(NCCn1nnnc1S)c1ccc2nc(-c3ccc(F)cc3)c(-c3ccc(F)cc3)nc2c1 [Compound I-139, 2,3-bis(4-fluorophenyl)-N-[2-(5-sulfanyl-1H-tetrazol-1-yl)ethyl]quinoxaline-6-carboxamide]
pIC50 (hNAMPT protein; NAMPT IC50 range class): 5.70 to 6.00
inhibition at 1 µM (hNAMPT protein; compound concentration 1 μM): 41%
inhibition at 1 µM (PC3 cells): 99%

O=C(NCCCn1ccnc1)c1ccc2nc(-c3cccc(OC(F)(F)F)c3)c(-c3ccccc3)nc2c1 [Compound I-61, N-[3-(1H-imidazol-1-yl)propyl]-3-phenyl-2-[3-(trifluoromethoxy)phenyl]quinoxaline-6-carboxamide]
pIC50 (hNAMPT protein; NAMPT IC50 range class): 6.30 to 7.00
inhibition at 1 µM (hNAMPT protein; compound concentration 1 μM): 75%
inhibition at 1 µM (PC3 cells): -7%

O=C(NCCCn1ccnc1)c1ccc2nc(N3CCC4(CC3)COC4)c(-c3ccccc3)nc2c1 [Compound I-30, N-[3-(1H-imidazol-1-yl)propyl]-2-(2-oxa-7-azaspiro[3.5]non-7-yl)-3-phenylquinoxaline-6-carboxamide]
pIC50 (hNAMPT protein; NAMPT IC50 range class): 6.30 to 7.00
inhibition at 1 µM (hNAMPT protein; compound concentration 1 μM): 83%
inhibition at 1 µM (PC3 cells): -7%

CCOc1cccc(-c2nc3ccc(C(=O)NCCCn4ccnc4)cc3nc2-c2ccccc2)c1 [Compound I-228, 2-(3-ethoxyphenyl)-N-[3-(1H-imidazol-1-yl)propyl]-3-phenylquinoxaline-6-carboxamide]
pIC50 (hNAMPT protein; NAMPT IC50 range class): 6.30 to 7.00
inhibition at 1 µM (hNAMPT protein; compound concentration 1 μM): 80%
inhibition at 1 µM (PC3 cells): -8%

O=C(NCCCn1ccnc1)c1ccc2nc(-c3ccccc3)c(-c3ccc4cc[nH]c4c3)nc2c1 [Compound I-227, N-[3-(1H-imidazol-1-yl)propyl]-3-(1H-indol-6-yl)-2-phenylquinoxaline-6-carboxamide]
pIC50 (hNAMPT protein; NAMPT IC50 range class): 6.00 to 6.30
inhibition at 1 µM (hNAMPT protein; compound concentration 1 μM): 68%
inhibition at 1 µM (PC3 cells): 1%

Cn1cncc1CCNC(=O)c1ccc2nc(N3CCC(N4CCOCC4)CC3)c(-c3ccc(F)cc3)nc2c1 [Compound I-82, 3-(4-Fluorophenyl)-N-[2-(1-methyl-1H-imidazol-5-yl)ethyl]-2-[4-(morpholin-4-yl)piperidin-1-yl]quinoxaline-6-carboxamide]
pIC50 (hNAMPT protein; NAMPT IC50 range class): > 7.00
inhibition at 1 µM (hNAMPT protein; compound concentration 1 μM): 98%
inhibition at 1.667 µM (PC3 cells): 2%

O=C(NCCCc1ncc[nH]1)c1ccc2nc(OCc3ccc(Cl)cc3)c(-c3ccc(F)cc3)nc2c1 [Compound I-364, 2-[(4-chlorobenzyl)oxy]-3-(4-fluorophenyl)-N-[3-(1H-imidazol-2-yl)propyl]quinoxaline-6-carboxamide]
pIC50 (hNAMPT protein; NAMPT IC50 range class): 6.30 to 7.00
inhibition at 1 µM (hNAMPT protein; compound concentration 1 μM): 73%
inhibition at 1.667 µM (PC3 cells): 4%

O=C(NCCCc1ncc[nH]1)c1ccc2nc(OCC3CCCCC3)c(-c3ccc(F)cc3)nc2c1 [Compound I-314, 2-(cyclohexylmethoxy)-3-(4-fluorophenyl)-N-[3-(1H-imidazol-2-yl)propyl]quinoxaline-6-carboxamide]
pIC50 (hNAMPT protein; NAMPT IC50 range class): > 7.00
inhibition at 1 µM (hNAMPT protein; compound concentration 1 μM): 91%
inhibition at 1.667 µM (PC3 cells): 3%

O=C(NCCCc1ncc[nH]1)c1ccc2nc(-c3ccc(F)cc3)c(-c3cccc(Cl)c3F)nc2c1 [Compound I-312, 3-(3-chloro-2-fluorophenyl)-2-(4-fluorophenyl)-N-[3-(1H-imidazol-2-yl)propyl]quinoxaline-6-carboxamide]
pIC50 (hNAMPT protein; NAMPT IC50 range class): > 7.00
inhibition at 1 µM (hNAMPT protein; compound concentration 1 μM): 94%
inhibition at 1.667 µM (PC3 cells): 2%

O=C(NCCCc1ncc[nH]1)c1ccc2nc(CN3CCOCC3)c(-c3ccc(F)cc3)nc2c1 [Compound I-405, 3-(4-fluorophenyl)-N-[3-(1H-imidazol-2-yl)propyl]-2-(morpholin-4-ylmethyl)quinoxaline-6-carboxamide]
inhibition at 1 µM (hNAMPT protein; [1]): 72%
pIC50 (hNAMPT protein; [2]): 6.30 to 7.00
inhibition at 1.667 µM (PC3 cells): 3%
